Data taken from ChEMBL document CHEMBL4699600, “Design, Synthesis, and Biological Evaluation of Covalent Inhibitors of Focal Adhesion Kinase (FAK) against Human Malignant Glioblastoma” (J Med Chem, 2020).
Calls of active or inactive are those of the source. The calls are words filed in the database; no cut-off is given here.

How the values were obtained:
U-251 = test: Cytotoxicity against human U251 cells assessed as reduction in cell viability incubated for 48 hrs by MTT assay; conditions: U-251, 48 h
A 172 = test: Cytotoxicity against human A172 cells assessed as reduction in cell viability incubated for 48 hrs by MTT assay; conditions: A 172, 48 h
U-87 MG [1] = test: Activation of ERK in human U87MG cells at 0.1 to 10 uM incubated for 48 hrs by Western blot analysis; type: cell-based; conditions: dose microM 0.1-10, time 48.0 hrs
[2] = biological target: Insulin-like growth factor 1 receptor (Homo sapiens) (UniProt P08069); test: Inhibition of human recombinant IGF1R at 100 nM by [gamma-33ATP] radiometric assay relative to control
[3] = biological target: Insulin receptor (Homo sapiens) (UniProt P06213); test: Inhibition of human recombinant IR at 100 nM by [gamma-33ATP] radiometric analysis relative to control
Focal adhesion kinase 1 [4] = biological target: T1, Focal adhesion kinase 1 (Homo sapiens, UniProt Q05397); conditions: U-87 MG, dose microM 0.1-5, time 48.0 hrs
Target sequence in this assay (Q05397 2-1052 limits assumed): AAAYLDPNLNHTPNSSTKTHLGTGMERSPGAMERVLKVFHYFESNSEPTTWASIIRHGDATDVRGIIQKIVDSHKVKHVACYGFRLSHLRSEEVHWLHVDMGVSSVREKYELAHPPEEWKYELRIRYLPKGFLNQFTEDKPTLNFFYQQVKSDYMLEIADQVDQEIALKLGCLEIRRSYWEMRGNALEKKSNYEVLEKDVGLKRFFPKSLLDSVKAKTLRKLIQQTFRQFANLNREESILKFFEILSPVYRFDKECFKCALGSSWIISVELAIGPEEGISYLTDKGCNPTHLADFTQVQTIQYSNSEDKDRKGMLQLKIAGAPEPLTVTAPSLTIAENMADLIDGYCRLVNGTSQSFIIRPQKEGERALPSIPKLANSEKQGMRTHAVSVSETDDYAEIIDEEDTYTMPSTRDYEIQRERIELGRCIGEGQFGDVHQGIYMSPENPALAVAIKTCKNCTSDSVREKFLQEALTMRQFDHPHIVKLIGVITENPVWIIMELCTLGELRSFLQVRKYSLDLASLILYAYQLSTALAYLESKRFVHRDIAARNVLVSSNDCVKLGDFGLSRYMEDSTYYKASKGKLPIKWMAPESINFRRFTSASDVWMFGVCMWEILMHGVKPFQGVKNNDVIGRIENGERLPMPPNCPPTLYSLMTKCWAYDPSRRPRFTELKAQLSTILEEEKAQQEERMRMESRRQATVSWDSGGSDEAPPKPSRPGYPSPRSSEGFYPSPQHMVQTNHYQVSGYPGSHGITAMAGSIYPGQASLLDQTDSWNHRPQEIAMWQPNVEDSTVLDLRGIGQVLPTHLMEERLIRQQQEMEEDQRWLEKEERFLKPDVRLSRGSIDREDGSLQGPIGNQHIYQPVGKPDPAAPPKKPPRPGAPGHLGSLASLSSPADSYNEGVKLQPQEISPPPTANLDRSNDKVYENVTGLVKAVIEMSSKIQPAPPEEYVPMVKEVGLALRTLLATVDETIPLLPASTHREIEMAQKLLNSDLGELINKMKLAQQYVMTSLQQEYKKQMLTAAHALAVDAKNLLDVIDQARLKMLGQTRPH

U-87 MG [5] = test: Induction of cell cycle arrest in human U87MG cells assessed as accumulation at G0/G1 phase at 1 uM incubated for 48 hrs by propidium iodide staining based flow cytometry analysis (reference value: 51.6 +/- […]); type: functional, U-87MG ATCC
U-87 MG [6] = test: Induction of cell cycle arrest in human U87MG cells assessed as multi-nucleated giant cells at 1 uM incubated for 48 hrs by TO-PRO-3 dye based immunocytochemistry analysis; type: functional; conditions: U-87MG ATCC
[7] = biological target: T2, Serine/threonine-protein kinase AKT (Homo sapiens) (UniProt P31751+Q9Y243+P31749); test: Inhibition of human Akt at 100 nM in presence of [33P]-ATP by radiometric analysis relative to control; type: protein assay
U-87 MG [8] = test: Induction of apoptosis in human U87MG cells assessed as necrotic cells at 10 uM incubated for 48 hrs by Annexin-V/propidium iodide staining based flow cytometric method (reference value: […]); type: functional, U-87MG ATCC
Focal adhesion kinase 1 [9] = biological target: T1, Focal adhesion kinase 1; conditions: U-87 MG, dose microM 0.6-3, time 48.0 hrs
Target sequence in this assay (Q05397 2-1052 limits assumed): as above

U-87 MG [10] = test: Induction of apoptosis in human U87MG cells assessed as live cells at 10 uM incubated for 48 hrs by Annexin-V/propidium iodide staining based flow cytometric method (reference value: 94.2%); type: functional, U-87MG ATCC
[11] = biological target: Epidermal growth factor receptor (Homo sapiens) (UniProt P00533); test: Inhibition of human recombinant EGFR at 100 nM in presence of [gamma33P]ATP by radiometric assay relative to control
[12] = biological target: T2, Serine/threonine-protein kinase AKT (Homo sapiens); test: Activation of AKT in human U87MG cells at 0.1 to 10 uM incubated for 48 hrs by Western blot analysis; type: cell-based; conditions: U-87 MG, dose microM 0.1-10, time 48.0 hrs
U-87 MG [13] = test: Inhibition of cell adhesion in human U87MG cells assessed as increase in appearance of stress fiber at 1 uM incubated for 48 hrs by FITC-conjugated phalloidin and TO-PRO3 staining based microscopic analysis; type: functional; conditions: U-87MG ATCC
Focal adhesion kinase 1 [14] = biological target: T1, Focal adhesion kinase 1; conditions: U-87 MG, dose microM 0.1-10, time 48.0 hrs
Target sequence in this assay (Q05397 2-1052 limits assumed): as above

Focal adhesion kinase 1 [15] = biological target: T1, Focal adhesion kinase 1; conditions: U-87 MG, dose microM 0.1-10, time 48.0 hrs; remark: listed apart in the source
Target sequence in this assay (Q05397 2-1052 limits assumed): as above

Focal adhesion kinase 1 [16] = biological target: T1, Focal adhesion kinase 1; test: Inhibition of human recombinant FAK at 100 nM by [gamma32P]-ATP radiometric analysis relative to control
Target sequence in this assay (Q05397 2-1052 limits assumed): as above

U-87 MG [17] = test: Induction of apoptosis in human U87MG cells assessed as late apoptotic cells at 10 uM incubated for 48 hrs by Annexin-V/propidium iodide staining based flow cytometric method (reference value: […]); type: functional, U-87MG ATCC
U-87 MG [18] = test: Induction of cell cycle arrest in human U87MG cells assessed as increase in accumulation at G2 phase at 1 uM incubated for 48 hrs by propidium iodide staining based flow cytometry analysis; type: functional; conditions: U-87MG ATCC
U-87 MG [19] = test: Induction of cell cycle arrest in human U87MG cells assessed as accumulation in G2/M phase at 1 uM incubated for 48 hrs by propidium iodide staining based flow cytometry analysis (reference value: 28.9 +/- 2.1 %); type: functional, U-87MG ATCC; conditions: dose microM 1-10
U-87 MG [20] = test: Induction of cell cycle arrest in human U87MG cells assessed as accumulation at S phase at 1 uM incubated for 48 hrs by propidium iodide staining based flow cytometry analysis (reference value: 19.5 %); type: functional, U-87MG ATCC
U-87 MG [21] = test: Induction of apoptosis in human U87MG cells assessed as early apoptotic cells at 10 uM incubated for 48 hrs by Annexin-V/propidium iodide staining based flow cytometric method (reference value: 4.55 %); type: functional, U-87MG ATCC
[22] = biological target: Mast/stem cell growth factor receptor Kit (Homo sapiens) (UniProt P10721); test: Inhibition of human recombinant c-kit at 100 nM in presence of [gamma33P]ATP by radiometric assay relative to control
U-87 MG [23] = test: Induction of cellular senescence in human U87MG cells assessed as flat and enlarged cells at 1 uM incubated for 48 hrs by TO-PRO-3 dye based immunocytochemistry analysis; type: functional, cell-based; conditions: U-87MG ATCC
Focal adhesion kinase 1 [24] = biological target: T1, Focal adhesion kinase 1; conditions: U-87 MG, dose microM 0.1-10, time 48.0 hrs; remark: listed apart in the source
Target sequence in this assay (Q05397 2-1052 limits assumed): as above

U-87 MG [25] = test: Cytotoxicity against human U-87 MG cells assessed as reduction in cell viability incubated for 48 hrs by MTT assay
[26] = biological target: Platelet-derived growth factor receptor alpha (Homo sapiens) (UniProt P16234); test: Inhibition of human recombinant PDGFRA at 100 nM by [gamma-33ATP] radiometric assay relative to control
[27] = biological target: Protein-tyrosine kinase 2-beta (Homo sapiens) (UniProt Q14289); test: Inhibition of recombinant human full length PYK2 at 100 nM in presence of [gamma32P]-ATP by radiometric analysis relative to control
Focal adhesion kinase 1 [28] = biological target: T1, Focal adhesion kinase 1; test: Covalent inhibition of recombinant human N-terminal His-tagged FAK (393 to 698 residues) expressed in baculovirus infected Sf9 insect cells using Poly (4:1 Glu, Tyr) as substrate preincubated for 2 to 60 mins followed by substrate addition and measured after 1 hr by ADP-glo luminescence assay
Target sequence in this assay (Q05397 whole entry): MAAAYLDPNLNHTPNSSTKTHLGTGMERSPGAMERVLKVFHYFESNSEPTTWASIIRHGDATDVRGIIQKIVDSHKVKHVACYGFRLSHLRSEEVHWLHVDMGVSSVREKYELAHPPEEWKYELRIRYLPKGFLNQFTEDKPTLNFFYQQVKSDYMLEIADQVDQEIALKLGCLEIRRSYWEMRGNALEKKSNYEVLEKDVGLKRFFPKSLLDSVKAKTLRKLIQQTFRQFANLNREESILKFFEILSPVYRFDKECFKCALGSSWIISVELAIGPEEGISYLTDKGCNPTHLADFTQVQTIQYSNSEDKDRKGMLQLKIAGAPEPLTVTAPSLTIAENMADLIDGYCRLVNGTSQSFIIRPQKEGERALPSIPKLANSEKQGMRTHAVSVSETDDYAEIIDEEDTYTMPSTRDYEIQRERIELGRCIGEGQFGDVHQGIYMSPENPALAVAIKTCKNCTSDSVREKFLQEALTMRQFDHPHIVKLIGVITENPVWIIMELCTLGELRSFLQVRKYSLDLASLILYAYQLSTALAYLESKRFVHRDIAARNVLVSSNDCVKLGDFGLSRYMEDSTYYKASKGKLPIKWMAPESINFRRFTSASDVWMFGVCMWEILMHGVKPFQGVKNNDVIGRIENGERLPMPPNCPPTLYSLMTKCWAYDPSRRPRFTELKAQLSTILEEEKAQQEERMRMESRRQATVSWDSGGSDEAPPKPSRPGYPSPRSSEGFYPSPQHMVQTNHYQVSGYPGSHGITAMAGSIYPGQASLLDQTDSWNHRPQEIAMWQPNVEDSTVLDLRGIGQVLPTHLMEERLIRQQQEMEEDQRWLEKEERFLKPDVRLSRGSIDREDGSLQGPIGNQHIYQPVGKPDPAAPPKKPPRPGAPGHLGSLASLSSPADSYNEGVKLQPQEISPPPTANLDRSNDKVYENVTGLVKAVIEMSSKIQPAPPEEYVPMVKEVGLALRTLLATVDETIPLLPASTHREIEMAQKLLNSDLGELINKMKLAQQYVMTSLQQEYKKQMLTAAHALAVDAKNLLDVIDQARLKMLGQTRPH

Focal adhesion kinase 1 [29] = biological target: T1, Focal adhesion kinase 1; test: Inhibition of recombinant human N-terminal His-tagged FAK (393 to 698 residues) expressed in baculovirus infected Sf9 insect cells using Poly (4:1 Glu, Tyr) as substrate measured after 1 hr by ADP-glo luminescence assay
Target sequence in this assay (Q05397 whole entry): as above

[30] = biological target: Fibroblast growth factor receptor 1 (Homo sapiens) (UniProt P11362); test: Inhibition of human recombinant FGFR1 (456 to 765 residues) at 100 nM in presence of [gamma33P]ATP by radiometric assay relative to control
Focal adhesion kinase 1 [31] = biological target: T1, Focal adhesion kinase 1; conditions: U-87 MG, dose microM 0.1-5, time 48.0 hrs; remark: listed apart in the source
Homo sapiens = species on record: Homo sapiens; test: Inhibition of human recombinant Erk at 100 nM measured in presence of [33P]-ATP by radiometric analysis relative to control
[32] = biological target: Proto-oncogene tyrosine-protein kinase Src (Homo sapiens) (UniProt P12931); test: Inhibition of human recombinant Src at 100 nM in presence of [gamma33P]ATP by radiometric assay relative to control
U-87 MG [33] = test: Inhibition of cell migration in human U87MG cells assessed as reduction of cell mobility at 0.2 to 1 uM measured at 24 to 48 hrs by scratch wound assay; type: functional, cell-based; conditions: U-87MG ATCC, dose microM 0.2-1, time hrs 24-48

T2 sequence (P31749 whole entry, looked up): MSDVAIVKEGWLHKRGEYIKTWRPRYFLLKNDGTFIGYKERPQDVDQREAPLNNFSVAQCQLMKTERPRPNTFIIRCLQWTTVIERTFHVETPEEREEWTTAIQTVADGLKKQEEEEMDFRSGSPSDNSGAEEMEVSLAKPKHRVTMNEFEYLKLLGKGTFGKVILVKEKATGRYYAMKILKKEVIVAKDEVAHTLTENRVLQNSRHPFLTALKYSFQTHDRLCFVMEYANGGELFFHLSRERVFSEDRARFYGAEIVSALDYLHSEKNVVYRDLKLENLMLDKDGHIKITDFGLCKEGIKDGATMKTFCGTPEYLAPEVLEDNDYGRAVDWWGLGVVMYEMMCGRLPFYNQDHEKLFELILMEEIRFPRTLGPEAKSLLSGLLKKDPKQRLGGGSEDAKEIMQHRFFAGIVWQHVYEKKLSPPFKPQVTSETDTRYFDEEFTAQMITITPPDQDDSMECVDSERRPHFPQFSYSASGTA
T2 sequence (P31751 whole entry, looked up): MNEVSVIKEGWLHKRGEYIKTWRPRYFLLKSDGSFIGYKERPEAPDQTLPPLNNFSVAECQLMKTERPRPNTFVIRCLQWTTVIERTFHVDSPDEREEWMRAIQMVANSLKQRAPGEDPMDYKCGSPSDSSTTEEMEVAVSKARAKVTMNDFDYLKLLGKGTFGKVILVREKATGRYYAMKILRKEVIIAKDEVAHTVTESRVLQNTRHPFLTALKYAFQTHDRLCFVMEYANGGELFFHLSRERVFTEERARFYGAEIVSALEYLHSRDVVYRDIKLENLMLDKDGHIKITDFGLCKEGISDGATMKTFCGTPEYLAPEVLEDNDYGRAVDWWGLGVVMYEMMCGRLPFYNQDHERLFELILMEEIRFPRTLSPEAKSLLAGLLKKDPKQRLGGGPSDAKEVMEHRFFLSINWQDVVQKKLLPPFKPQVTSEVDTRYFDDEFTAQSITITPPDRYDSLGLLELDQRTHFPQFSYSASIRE
T2 sequence (Q9Y243 whole entry, looked up): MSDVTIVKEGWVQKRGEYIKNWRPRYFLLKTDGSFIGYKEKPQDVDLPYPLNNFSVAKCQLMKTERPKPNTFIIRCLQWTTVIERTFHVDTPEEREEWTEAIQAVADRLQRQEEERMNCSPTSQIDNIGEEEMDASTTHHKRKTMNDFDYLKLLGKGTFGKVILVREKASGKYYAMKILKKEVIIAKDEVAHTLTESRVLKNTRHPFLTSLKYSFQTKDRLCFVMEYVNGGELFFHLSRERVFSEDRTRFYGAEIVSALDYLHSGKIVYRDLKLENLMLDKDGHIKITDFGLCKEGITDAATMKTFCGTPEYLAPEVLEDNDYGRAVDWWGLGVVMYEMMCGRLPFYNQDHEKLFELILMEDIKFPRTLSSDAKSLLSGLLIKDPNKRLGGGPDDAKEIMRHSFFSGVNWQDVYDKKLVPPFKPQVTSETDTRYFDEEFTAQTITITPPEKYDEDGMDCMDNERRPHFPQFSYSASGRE
Chain of Protein-tyrosine kinase 2-beta (Homo sapiens) (Q14289 whole entry, looked up, the tested form may be a part): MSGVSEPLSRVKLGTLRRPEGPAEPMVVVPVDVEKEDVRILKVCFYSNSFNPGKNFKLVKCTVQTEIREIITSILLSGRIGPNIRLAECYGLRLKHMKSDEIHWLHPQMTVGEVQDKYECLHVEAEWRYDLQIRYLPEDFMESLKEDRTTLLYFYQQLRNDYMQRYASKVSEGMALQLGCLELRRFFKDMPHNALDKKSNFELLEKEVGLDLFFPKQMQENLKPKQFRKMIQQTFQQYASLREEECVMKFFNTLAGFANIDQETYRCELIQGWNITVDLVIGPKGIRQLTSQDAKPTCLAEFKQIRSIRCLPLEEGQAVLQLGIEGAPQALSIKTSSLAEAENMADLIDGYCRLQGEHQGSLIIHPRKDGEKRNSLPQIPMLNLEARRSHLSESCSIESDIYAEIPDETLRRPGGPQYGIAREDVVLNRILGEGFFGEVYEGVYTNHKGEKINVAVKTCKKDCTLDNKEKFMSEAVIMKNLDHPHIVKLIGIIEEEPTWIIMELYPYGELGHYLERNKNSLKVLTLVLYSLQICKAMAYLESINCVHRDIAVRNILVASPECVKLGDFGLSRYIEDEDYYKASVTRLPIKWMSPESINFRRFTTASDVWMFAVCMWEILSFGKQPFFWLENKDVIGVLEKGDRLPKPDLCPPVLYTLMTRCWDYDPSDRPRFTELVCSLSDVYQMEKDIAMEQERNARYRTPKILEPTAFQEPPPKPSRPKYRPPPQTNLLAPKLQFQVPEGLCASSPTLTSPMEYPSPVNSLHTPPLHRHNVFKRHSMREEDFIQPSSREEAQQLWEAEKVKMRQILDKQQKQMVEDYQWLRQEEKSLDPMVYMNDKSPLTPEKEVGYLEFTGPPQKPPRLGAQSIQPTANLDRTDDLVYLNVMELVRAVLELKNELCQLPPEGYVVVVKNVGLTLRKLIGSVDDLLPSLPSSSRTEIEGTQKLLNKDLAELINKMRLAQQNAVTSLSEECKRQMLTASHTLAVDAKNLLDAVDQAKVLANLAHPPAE

`C=CC(=O)NCCNc1c(NCc2ccc(Nc3ncc(Cl)c(Nc4ccccc4C(=O)NC)n3)cc2)c(=O)c1=O` was tested, and the IC50 (U-251) was 220 nM, the IC50 (A 172) was 650 nM and the Activity (U-87 MG [1]) was “inactive”. The inhibition [2] was 91.5%, the inhibition [3] was 57.6% and the inhibition (Focal adhesion kinase 1 [4]) was “Dose-dependent effect”. The Activity (U-87 MG [5]) was 9.2%, the Activity (U-87 MG [6]) was “Active” and the inhibition [7] was 3.7%. For the same molecule, the Activity (U-87 MG [8]) was 0.67%, the inhibition (Focal adhesion kinase 1 [9]) was “Dose-dependent effect” and the Activity (U-87 MG [10]) was 90.8%. For the same molecule, the inhibition [11] was 47.2%, the Activity [12] was “inactive” and the inhibition (U-87 MG [13]) was “Active”. The inhibition (Focal adhesion kinase 1 [14]) was “Dose-dependent effect”, the inhibition (Focal adhesion kinase 1 [15]) was “Dose-dependent effect” and the inhibition (Focal adhesion kinase 1 [16]) was 98.1%. For the same molecule, the Activity (U-87 MG [17]) was 2.45%, the Activity (U-87 MG [18]) was “Active” and the Activity (U-87 MG [19]) was 80.8%. For the same molecule, the Activity (U-87 MG [20]) was 10%, the Activity (U-87 MG [21]) was 6.05% and the inhibition [22] was 0.2%. For the same molecule, the Activity (U-87 MG [23]) was “Active”, the inhibition (Focal adhesion kinase 1 [24]) was “Dose-dependent effect” and the IC50 (U-87 MG [25]) was 2200 nM. The inhibition [26] was 91%, the inhibition [27] was 97.6% and the Ki (Focal adhesion kinase 1 [28]) was 0.23 nM. For the same molecule, the IC50 (Focal adhesion kinase 1 [29]) was 0.6 nM, the inhibition [30] was 87.1% and the inhibition (Focal adhesion kinase 1 [31]) was “inactive”. For the same molecule, the inhibition (Homo sapiens) was 14.2%, the inhibition [32] was 52.1% and the inhibition (U-87 MG [33]) was “Active”.
